One compound from patent US7071218B2, “N-substituted heterocycles for the treatment of hypercholesteremia, dyslipidemia and other metabolic disorders; cancer, and other diseases” (Incyte San Diego Incorporated, priority 2001, dated 2006) can be followed below.

As a reminder, the inhibition is the change of the read-out against control, counted positive when it falls. A high value points to a response far below the control.

The target in one assay is T1, PPARγ (Homo sapiens, UniProt P37231).
T1 construct: expressed in transfected cells; host or cells: CV-1 (green monkey kidney) cells, transient calcium phosphate transfection
T1 sequence (P37231 238-503 limits assumed): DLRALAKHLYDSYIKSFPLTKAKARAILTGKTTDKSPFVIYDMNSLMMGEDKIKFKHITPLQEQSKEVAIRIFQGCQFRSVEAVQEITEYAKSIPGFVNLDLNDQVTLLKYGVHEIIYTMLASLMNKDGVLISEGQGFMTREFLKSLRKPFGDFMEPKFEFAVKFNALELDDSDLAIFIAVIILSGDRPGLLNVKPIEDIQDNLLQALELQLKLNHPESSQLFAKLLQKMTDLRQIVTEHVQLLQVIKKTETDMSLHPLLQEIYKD
Briefly: In vitro transactivation assay in CV-1 cells, antagonism of BRL49653-induced Gal-PPARγ activation. The assay is classed as cell-based. Conditions: with 1 μM agonist BRL49653, dose-dependent. The source says:
In vitro screens such as the transactivation assay can be used to measure the ability of a compound to inhibit a nuclear receptor regulating lipid or carbohydrate uptake, synthesis or metabolism. In the assay described herein compounds can be identified that can inhibit activation of the following nuclear receptors: LXR, PPARα, PPARγ and FXR. This activity can be useful to treat lipid disorders such as hypercholesteremia and obesity.
Cell line: Kidney Green Monkey CV-1 cells.
Growing culturing medium: Dulbecco's modified Eagle's medium (DMEM) supplememnted with 10% fetal calf serum (FCS).
Procedure: CV-1 cells were plated in 48 well-plate culture plates, at a density of 10,000 cells/well, 24 h prior to transfection. One to three hours before transfection, cells were fed with fresh medium. A modified calcium phosphate precipitation procedure was used for transient transfection (Pfahl, M. et al., 1990, Methods in Enzymology 189: 256).
Typically, 40 ng reporter plasmid and 20 ng of each receptor expression vector were mixed, together with 10 ng of β-galactosidase control plasmid (pCH110, Pharmacia, Piscataway, N.J.) and Bluescript plasmid to obtain a total of 400 ng DNA per well. To this mixture 1 μl of 2.5M CaCl2 and 10 μl of BBS buffer, pH 6.95, were added afterward. […]

A further assay relates to 3T3-L1 cells. Briefly: 3T3-L1 adipocyte differentiation (lipid content), alone or with rosiglitazone (BRL49653). The assay is classed as cell-based, mouse. Conditions: 7 days of treatment. An excerpt: The mouse preadipocyte cell line 3T3-L1 has been extensively used to study adipocyte differentiation. Upon stimulation with differentiating agents, preadipocytes typically undergo one cell cycle expansion and then they are growth arrested and dramatically change their shape to become more rounded cells, loaded with lipids, in a fashion closely reflecting adipogenesis in vivo. In this well-known process of differentiation, peroxisome proliferator activated receptor gamma (PPARγ) and retinoid X receptor (RXR) play a key role. PPARγ binds as an obligatory heterodimer with RXR to specific responsive sequences in the promoter region of target genes. In the particular case of PPARγ/RXR heterodimers, both receptors can be activated via their specific ligands. As a consequence of such activation, adipocyte-specific genes are turned on (C/EBP, aP2, LPL, adipsin, etc) and adipocyte differentiation results. Because lipid accumulation is the endpoint of adipocyte differentiation, the quantification of lipids which have accumulated in cells upon treatment with the compound(s) of interest, will indicate the ability of that compound to trigger adipocyte differentiation. More importantly, the potency of that compound can be estimated as well based on the total amount of lipids accumulated. The amount of lipid measured at the end of the assay for each tested compound is here compared to that of Compound 73 at 0.1 μM, which is considered 100% (see FIG. 11A).
In the particular case of measuring the potential antagonistic activity of some compounds, the putative antagonist is combined together with an agonist (such as the PPARγ agonist BRL49653). Thus, the amount of lipids accumulated in response to BRL49653 (considered as 100% in this case), is decreased by the compound with antagonistic activity (see FIG. 11B).
Materials and Methods: Mouse embryo fibroblast 3T3-L1 cell line, from American Type Culture Collection (ATCC), was used as a model of adipocyte differentiation.
Growing medium (GM): DME Dulbecco's modified Eagle's medium containing 4500 mg/L glucose; 4 mM L-glutamine; 10 U/ml Pen-G; 10 mcg/ml and 10% Calf Serum (CS).
Differentiation medium (DM): DME Dulbecco's modified Eagle's medium containing 4500 mg/L glucose; 4 mM L-glutamine; 10 U/ml Pen-G; 10 mcg/ml and 10% Fetal Calf Serum (FCS). Cells are always kept at 10% CO2.
Cells were seeded at 3,000 cells/well in 96 well-tissue culture plates in growing medium.
Two days after reaching confluence, cells were treated with the different compounds of interest in DM (Day 0). Drugs were replaced every 2–3 days in DM. Differentiation was assessed after 7 days of treatment, by measuring the lipid content in the cells, using the Triglyceride (INFINITY) reagent (Quantitative assay). • Controls: All cells, including control cells (vehicle), are treated with the same volume of dimethyl sulfoxide (DMSO) never exceeding 0.1% final solvent concentration. As a positive control for differentiation, cells were treated with 10 μg insulin per ml and 2.5 μM dexamethasone (Ins/Dex).

In the case of `CN(C)c1cc2c(cc1-c1ccc3cc(/C=C4\SC(=S)N(CC(=O)O)C4=O)ccc3c1)C(C)(C)CCC2(C)C` [Compound 7, {5-[6-(3-Dimethylamino-5,5,8,8-tetramethyl-5,6,7,8-tetrahydro-naphthalen-2-yl)-naphthalen-2-ylmethylene]-4-oxo-2-thioxo-thiazolidin-3-yl}-acetic acid], the inhibition at 10 µM at PPARγ lay within 80 to 90%. Further, the “lipid accumulation / differentiation of 3T3-L1 cells by the compound alone” value in the assay on 3T3-L1 cells (1e-10M to 1e-5M) is “lacked the ability to differentiate 3T3-L1 cells by themselves”. Besides, in the assay with 3T3-L1 cells (in combination with rosiglitazone), the “inhibition of adipocyte differentiation / lipid accumulation induced by rosiglitazone (BRL49653)” value is recorded as “strongly inhibited”.
